Values joined by “and” are separate entries in the source; they are usually repeats but may differ in a detail not shown here. Identical values can stand only once.
Experiments:
[1] = test system: IL-8 mRNA in HIOs; test: IL-8 mRNA in iPSC-derived human intestinal organoids exposed to cytokine cocktail; type: cell-based; design: key to IL8 mRNA: relative IL-8 mRNA level, normalized to GAPDH; settings: for basal IL-8 expression: 10 and 25 μM; for IL-8 mRNA expression in presence of cytokines: 12 h of exposure; for IL8 mRNA: HIO, triplicate
Method: Caco‐2 cell (ATCC, Manassas, VA) passages 25–35 were maintained and expanded in culture flasks in Dulbecco's modified Eagle's medium (DMEM) with 10% FBS and 1× antibiotic–antimycotic. The cells were kept in a humidified 37°C incubator with 5% CO2. Media were changed every 2–3 days, and cells were passaged 1–2 times a week. For all experiments, Caco‐2 cells (5 × 10^4 cells/ml) were seeded into 12‐well Transwell inserts or coverslips and cultured for 3 weeks. HIOs were generated from iPSCs as described previously (Spence et al, 2011), with some modifications. The iPSC cell line IISH1i‐BM1 (WiCell, Madison, WI) was cultured on Matrigel plates to 80% confluence in mTeSR™ 1 medium (Stem Cell Technologies, Seattle, WA) and differentiated to endoderm using Definitive Endoderm Kit (Stem Cell Technologies., Seattle, WA) for 4 days with daily media changes. Endoderm was then differentiated to hindgut for 5 days with the addition of FGF‐4 (500 ng/ml; Peprotech, Rocky Hill, NJ) and Chir99021 (3 μM; Cayman, Ann Arbor, MI) in RPMI media supplemented with 2% FBS. Floating hindgut spheroids were collected on days 3–5 of hindgut differentiation and suspended in Matrigel beads for HIO differentiation. HIOs were maintained in WENRAS media (Fujii et al, 2015), which maintains proliferation in the culture. Stock HIOs were passaged weekly by removing Matrigel with Cell Recovery Solution (Corning, NY) and mechanically breaking up organoids with pipetting. HIOs were seeded into new Matrigel beads at a 1:3 split, using WENRAS with added Rock Inhibitor Y‐27632 (10 μM) and Chir99021 (3 μM; Cayman., Ann Arbor, MI) for the first 2 days of culture.
HIOs and Caco‐2 were exposed to a pro‐inflammatory cytokine cocktail (10 ng/ml IFN‐γ, 10 ng/ml TNF‐α, 50 ng/ml IL‐1β) for 2–24 h in combination with DMSO or FKK5 and FKK6 compounds (10 and 25 μm). Relative mRNA levels of IL‐8 and IL‐6 were determined using quantitative real‐time PCR, with normalization to GAPDH. RNA was isolated using an RNeasy Mini Kit (Qiagen) as per the manufacturer's instructions. On column DNase (Qiagen) was used to remove any contaminating DNA. Next, cDNA was formed using iScript cDNA Synthesis Kit (Bio‐Rad) and 100 ng RNA. qRT–PCR was performed with SsoAdvanced Universal SYBR Green Kit (Bio‐Rad). The following primers were used: IL‐8 Forward: […]; IL‐8 Reverse: […]; IL‐6 Forward: […]; IL‐6 Reverse: […]; GAPDH Forward: […]; GAPDH Reverse: […]. For immunofluorescent staining of NF‐ĸB translocation to the cell nucleus, HIOs and Caco‐2 cell monolayers were fixed in 4% formaldehyde (in 1 × PBS) overnight at 4°C. The formaldehyde was removed by washing with 1 × PBS, and an antigen retrieval step was performed by incubating in 10 mM sodium citrate buffer in a vegetable steamer for 20 min. The samples were then blocked with normal donkey serum (10% in PBS with 0.3% Triton X‐100) for 1 h. Samples were incubated overnight with primary antibodies: rabbit anti‐NF‐κB p65 (D14E12 # 8242, 1:400 dilution, Cell Signaling Technology, Danvers MA), then immersed in Alexa Fluor® 555 donkey anti‐rabbit secondary antibody (A‐31572, Life Technologies) at a 1:500 dilution. Nuclei were stained with Hoechst 33342 (Life Technologies). The samples were then imaged using a Zeiss LSM880 Confocal/Multiphoton Upright Microscope, with 3‐D image rendering using Volocity. For controls, normal rabbit IgG (#2729S, Life Technologies) was used.

[2] = test system: NF-κB; test: TNF-α-induced NF-κB reporter assay in LS180 cells with or without PXR co-transfection; type: cell-based, human; settings: for TNF-α-induced NF-κB reporter activity: 0.1 to 25 μM, PXR-untransfected and PXR-transfected cells
Method: NF‐κB reporter assays were performed using LS180 cells. […] Thereafter, cells were lysed, and Nano luciferase activity was measured using a Tecan Infinite M200 Pro plate reader (Schoeller Instruments, Czech Republic).

[3] = compound 10µm, no cytokines, 2 hr
[4] = cytokines + compound 10µm, 2 hr
[5] = cytokines + compound 25µm, 2 hr
[6] = NFkB transfected LS180 cells, 8th pass, EXP1, 0,1 uM + TNFa 5 ng/ml
[7] = NFkB transfected LS180 cells, 8th pass, EXP1, 1 uM + TNFa 5 ng/ml
[8] = NFkB transfected LS180 cells, 8th pass, EXP1, 10 uM + TNFa 5 ng/ml
[9] = NFkB transfected LS180 cells, 8th pass, EXP1, 25 uM + TNFa 5 ng/ml
[10] = NFkB transfected LS180 cells, 13th pass, EXP2, 0,1 uM + TNFa 5 ng/ml
[11] = NFkB transfected LS180 cells, 13th pass, EXP2, 1 uM + TNFa 5 ng/ml
[12] = NFkB transfected LS180 cells, 13th pass, EXP2, 10 uM + TNFa 5 ng/ml
[13] = NFkB transfected LS180 cells, 13th pass, EXP2, 25 uM + TNFa 5 ng/ml
[14] = NFkB+PXR transfected LS180 cells, 8th pass, EXP1, 0,1 uM + TNFa 5 ng/ml
[15] = NFkB+PXR transfected LS180 cells, 8th pass, EXP1, 1 uM + TNFa 5 ng/ml
[16] = NFkB+PXR transfected LS180 cells, 8th pass, EXP1, 10 uM + TNFa 5 ng/ml
[17] = NFkB+PXR transfected LS180 cells, 8th pass, EXP1, 25 uM + TNFa 5 ng/ml
[18] = NFkB+PXR transfected LS180 cells, 13th pass, EXP2, 0,1 uM + TNFa 5 ng/ml
[19] = NFkB+PXR transfected LS180 cells, 13th pass, EXP2, 1 uM + TNFa 5 ng/ml
[20] = NFkB+PXR transfected LS180 cells, 13th pass, EXP2, 10 uM + TNFa 5 ng/ml
[21] = NFkB+PXR transfected LS180 cells, 13th pass, EXP2, 25 uM + TNFa 5 ng/ml

## C#CCC(O)(c1ccncc1)c1cc2ccccc2n1S(=O)(=O)c1ccccc1 (stereo not shown) [FKK6]
[1]
  basal IL-8 expression: no significant effect
  IL-8 mRNA expression in presence of cytokines: significantly reduced
[1]; [3]
  IL8 mRNA: 17.457 and 16.5395 and 13.4302
[1]; [4]
  IL8 mRNA: 87.755 and 95.5702 and 80.4889
[1]; [5]
  IL8 mRNA: 19.632 and 32.9894 and 27.3407
[2]
  TNF-α-induced NF-κB reporter activity: significantly reduced
[2]; [6]
  NFkB reporter luminescence, aver: 151491.7
  NFkB reporter, % max: 100.0%
[2]; [7]
  NFkB reporter luminescence, aver: 188054.3
  NFkB reporter, % max: 124.1%
[2]; [8]
  NFkB reporter luminescence, aver: 206680.7
  NFkB reporter, % max: 136.4%
[2]; [9]
  NFkB reporter luminescence, aver: 153657.3
  NFkB reporter, % max: 101.4%
[2]; [10]
  NFkB reporter luminescence, aver: 110498.5
  NFkB reporter, % max: 100.0%
[2]; [11]
  NFkB reporter luminescence, aver: 114693.5
  NFkB reporter, % max: 103.8%
[2]; [12]
  NFkB reporter luminescence, aver: 113662.5
  NFkB reporter, % max: 102.9%
[2]; [13]
  NFkB reporter luminescence, aver: 88975.5
  NFkB reporter, % max: 80.5%
[2]; [14]
  NFkB reporter luminescence, aver: 128584.0
  NFkB reporter, % max: 100.0%
[2]; [15]
  NFkB reporter luminescence, aver: 112418.0
  NFkB reporter, % max: 87.4%
[2]; [16]
  NFkB reporter luminescence, aver: 100484.8
  NFkB reporter, % max: 78.1%
[2]; [17]
  NFkB reporter luminescence, aver: 94342.8
  NFkB reporter, % max: 73.4%
[2]; [18]
  NFkB reporter luminescence, aver: 50028.3
  NFkB reporter, % max: 100.0%
[2]; [19]
  NFkB reporter luminescence, aver: 38521.5
  NFkB reporter, % max: 77.0%
[2]; [20]
  NFkB reporter luminescence, aver: 24979.3
  NFkB reporter, % max: 49.9%
[2]; [21]
  NFkB reporter luminescence, aver: 26644.5
  NFkB reporter, % max: 53.3%

## O=C(c1ccncc1)c1cc2ccccc2n1S(=O)(=O)c1ccccc1 [FKK5, (1-(phenylsulfonyl)-1H-indol-2-yl)(pyridin-4-yl)methanone]
[1]
  basal IL-8 expression: no significant effect
  IL-8 mRNA expression in presence of cytokines: significantly reduced
[1]; [3]
  IL8 mRNA: 18.0113 and 18.2375 and 29.1251
[1]; compound 25µm, no cytokines, 2 hr
  IL8 mRNA: 28.3595 and 38.1574 and 25.5014
[1]; [4]
  IL8 mRNA: 84.3969 and 82.9774 and 82.3934
[1]; cytokines + compound 10µm, 12 hr
  IL8 mRNA: 1568.63 and 1202.46 and 1346.22
[1]; [5]
  IL8 mRNA: 91.455 and 107.347 and 106.247
[1]; cytokines + compound 25µm, 12 hr
  IL8 mRNA: 1661.53 and 1048.7 and 891.557
[2]
  TNF-α-induced NF-κB reporter activity: significantly reduced
[2]; [6]
  NFkB reporter luminescence, aver: 154648.3
  NFkB reporter, % max: 100.0%
[2]; [7]
  NFkB reporter luminescence, aver: 174112.0
  NFkB reporter, % max: 112.6%
[2]; [8]
  NFkB reporter luminescence, aver: 177548.0
  NFkB reporter, % max: 114.8%
[2]; [9]
  NFkB reporter luminescence, aver: 128563.8
  NFkB reporter, % max: 83.1%
[2]; [10]
  NFkB reporter luminescence, aver: 96416.5
  NFkB reporter, % max: 100.0%
[2]; [11]
  NFkB reporter luminescence, aver: 100061.8
  NFkB reporter, % max: 103.8%
[2]; [12]
  NFkB reporter luminescence, aver: 94755.5
  NFkB reporter, % max: 98.3%
[2]; [13]
  NFkB reporter luminescence, aver: 73575.7
  NFkB reporter, % max: 76.3%
[2]; [14]
  NFkB reporter luminescence, aver: 119827.8
  NFkB reporter, % max: 100.0%
[2]; [15]
  NFkB reporter luminescence, aver: 119180.5
  NFkB reporter, % max: 99.5%
[2]; [16]
  NFkB reporter luminescence, aver: 105570.7
  NFkB reporter, % max: 88.1%
[2]; [17]
  NFkB reporter luminescence, aver: 87454.8
  NFkB reporter, % max: 73.0%
[2]; [18]
  NFkB reporter luminescence, aver: 54048.0
  NFkB reporter, % max: 100.0%
[2]; [19]
  NFkB reporter luminescence, aver: 44601.5
  NFkB reporter, % max: 82.5%
[2]; [20]
  NFkB reporter luminescence, aver: 31230.0
  NFkB reporter, % max: 57.8%
[2]; [21]
  NFkB reporter luminescence, aver: 30160.0
  NFkB reporter, % max: 55.8%

— PMC7136958, “Targeting the pregnane X receptor using microbial metabolite mimicry” (EMBO Molecular Medicine, 2020)
